According to patent US7115750B1, “Melanin concentrating hormone antagonist” (Takeda Pharmaceutical Company Limited, priority 1999, dated 2006):
Counter-ions that a name gives are not always drawn.

| melting point | Structure (SMILES) |
| --- | --- |
| 222 to 225 °C (dec.) | Cl.O=C(Nc1ccc(C(=O)C2CCCNC2)cc1)c1ccc(-c2ccc(Cl)cc2)cc1 (stereo not drawn) |
| 195 °C (dec.) | Cl.O=C(Nc1ccc(C(O)C2CCCNC2)cc1)c1ccc(-c2ccc(Cl)cc2)cc1 (stereo not drawn) |
| 218 to 220 °C (dec.) | Cl.O=C(Nc1ccc(CC2CCCNC2)cc1)c1ccc(-c2ccccc2)cc1 (stereo not drawn) |
| 205 °C (dec.) | Cl.O=C(Nc1ccc(CC2CCCNC2)cc1)c1ccc(-c2ccc(F)cc2)cc1 (stereo not drawn) |
| 200 °C (dec.) | Cl.O=C(Nc1ccc(CC2CCCNC2)cc1)c1ccc(-c2ccc(Cl)cc2)cc1 (stereo not drawn) |
| 220 °C (dec.) | CN(C)CC1CCc2cc(NC(=O)c3ccc(-c4ccc(-c5ccccc5)cc4)cc3)ccc2C1.Cl (stereo not drawn) |
| 168 to 170 °C | CN(C)CC1CCc2cc(NS(=O)(=O)c3ccc(-c4ccccc4)cc3)ccc2C1.Cl (stereo not drawn) |
| 201 to 203 °C | CN(C(=O)c1ccc(-c2ccc(F)cc2)cc1)c1ccc2c(c1)CCC(CN1CCCC1)=C2 (as salt: hydrochloride) [Example 226, 4′-Fluoro-N-methyl-N-[6-(1-pyrrolidinylmethyl)-7,8-dihydro-2-naphthalenyl][1,1′-biphenyl]-4-carboxamide Hydrochloride] |
| 187 to 189 °C | CN(C)CC1=Cc2ccc(NC(=O)c3ccc(-c4ccccc4)cc3)cc2C1 (hydrate or solvate) [Example 244, N-[2-[(Dimethylamino)methyl]-1H-inden-6-yl][1,1′-biphenyl]-4-carboxamide] |
| 193 to 196 °C | CN(C)CC1CCc2cc(NC(=O)c3ccc(C(=O)c4ccccc4)cc3)ccc2C1 (stereo not drawn) [Example 2, 4-Benzoyl-N-[2-(N,N-dimethylamino)methyl-6-tetralinyl]benzamide] |
| 235 to 240 °C | CN(C)CC1CCc2cc(NC(=O)c3ccc(N4C(=O)c5ccccc5C4=O)cc3)ccc2C1 (stereo not drawn) [Example 3, N-[2-(N,N-Dimethylamino)methyl-6-tetralinyl]-4-(1,3-dioxo-1,3-dihydro-2H-isoindol-2-yl) benzamide] |
| 135 to 136 °C | CN(C)CC1CCc2cc(NC(=O)c3ccc(OCc4ccccc4)cc3)ccc2C1 (stereo not drawn) [Example 5, 4-(Benzyloxy)-N-[2-(N,N-dimethylamino)methyl-6-tetralinyl]benzamide] |
| 224 to 226 °C | CN(C)CC1CCc2cc(NC(=O)c3ccc4c(c3)C(=O)c3ccccc3-4)ccc2C1 (stereo not drawn) [Example 6, N-[2-(N,N-Dimethylamino)methyl-6-tetralinyl]-9-oxo-9H-fluoren-2-carboxamide] |
| 222 to 223 °C (dec.) | CN(C)CC1CCc2cc(NC(=O)c3ccc4c(c3)S(=O)(=O)c3ccccc3C4=O)ccc2C1 (stereo not drawn) [Example 7, N-[2-(N,N-Dimethylamino)methyl-6-tetralinyl]-9,10,10-trioxo-9,10-dihydro-101^6-thioxanthene-3-carboxamide] |
| 216 to 217 °C (dec.) | CN(C)CC1CCc2cc(NC(=O)c3ccc(NC(=O)Nc4ccccc4)cc3)ccc2C1 (stereo not drawn) [Example 8, (4-Anilinocarbonyl)amino-N-[2-(N,N-dimethylamino)methyl-6-tetralinyl]benzamide] |
| 137 to 139 °C | CN(C)CC1CCc2cc(NC(=O)c3ccc(Oc4ccccc4)cc3)ccc2C1 (stereo not drawn) [Example 9, N-[2-(N,N-Dimethylamino)methyl-6-tetralinyl]-4-phenoxy benzamide] |
| 238 to 240 °C (dec.) | CN(C)CC1CCc2cc(NC(=O)c3ccc(C(=O)Nc4ccccc4)cc3)ccc2C1 (stereo not drawn) [Example 10, N^1-[2-(N,N-Dimethylamino)methyl-6-tetralinyl]-N^4-phenyl terephthalamide] |
| 137 to 138 °C | CCc1ccc(-c2ccc(C(=O)Nc3ccc4c(c3)CCC(CN(C)C)C4)cc2)cc1 (stereo not drawn) [Example 11, (4′-Ethylbiphenyl-4-yl)-N-[2-(N,N-dimethylamino)methyl-6-tetralinyl]carboxamide] |
| 187 to 189 °C | CN(C)CC1CCc2cc(NC(=O)c3ccc(-c4ccc(Cl)cc4)cc3)ccc2C1 (stereo not drawn) [Example 12, (4′-Chlorobiphenyl-4-yl)-N-[2-(N,N-dimethylamino)methyl-6-tetralinyl]carboxamide] |
| 174 to 176 °C | CN(C)CC1CCc2cc(NC(=O)c3ccc(-c4ccc5c(c4)OCO5)cc3)ccc2C1 (stereo not drawn) [Example 14] |

| melting point | Structure (SMILES) |
| --- | --- |
| 143 to 145 °C | CN(C)CC1CCc2cc(NC(=O)c3ccc(-c4ccc(Cl)c(Cl)c4)cc3)ccc2C1 (stereo not drawn) [Example 16, 3′,4′-Dichloro-N-[6-[(N,N-dimethylamino)methyl]-5,6,7,8-tetrahydro-2-naphthalenyl][1,1′-biphenyl]-4-carboxamide] |
| 246 to 248 °C | CN(C)CC1CCc2cc(NC(=O)c3ccc(-c4ccc([O-])cc4)cc3)ccc2C1.[Na+] (stereo not drawn) [Example 19, Sodium salt of N-[6-[(N,N-dimethylamino)methyl]-5,6,7,8-tetrahydro-2-naphthalenyl]-4′-oxy[1,1′-biphenyl]-4-carboxamide] |
| 130 to 132 °C | CN(C)CC1CCc2cc(NC(=O)c3ccc(-c4ccc(C=O)cc4)cc3)ccc2C1 (stereo not drawn) [Example 20, N-[6-[(N,N-Dimethylamino)methyl]-5,6,7,8-tetrahydro-2-naphthalenyl]-4′-formyl[1,1′-biphenyl]-4-carboxamide] |
| 138 to 139 °C | CN(C)CC1CCc2cc(NC(=O)c3ccc(-c4ccc(CO)cc4)cc3)ccc2C1 (stereo not drawn) [Example 21, N-[6-[(N,N-Dimethylamino)methyl]-5,6,7,8-tetrahydro-2-naphthalenyl]-4′-(hydroxymethyl)[1,1′-biphenyl]-4-carboxamide] |
| 186 to 188 °C | CCCc1ccc(-c2ccc(C(=O)Nc3ccc4c(c3)CCC(CN(C)C)C4)cc2)cc1 (stereo not drawn) [Example 22, N-[6-[(N,N-Dimethylamino)methyl]-5,6,7,8-tetrahydro-2-naphthalenyl]-4′-propyl[1,1′-biphenyl]-4-carboxamide] |
| 140 to 142 °C | Cc1cc(Br)ccc1C(=O)Nc1ccc2c(c1)CCC(CN(C)C)C2 (stereo not drawn) [Example 24, 4-Bromo-N-[6-[(N,N-dimethylamino)methyl]-5,6,7,8-tetrahydro-2-naphthalenyl]-2-methylbenzamide] |
| 154 to 155 °C | Cc1cc(C(=O)Nc2ccc3c(c2)CCC(CN(C)C)C3)ccc1Br (stereo not drawn) [Example 25, 4-Bromo-N-[6[(N,N-dimethylamino)methyl]-5,6,7,8-tetrahydro-2-naphthalenyl]-3-methylbenzamide] |
| 177 to 179 °C | CN(C)CC1CCc2cc(NC(=O)c3ccc(-c4ccc(Cl)cc4)cc3Cl)ccc2C1 (stereo not drawn) [Example 26, 3,4′-Dichloro-N-[6-[(N,N-dimethylamino)methyl]-5,6,7,8-tetrahydro-2-naphthalenyl][1,1′-biphenyl]-4-carboxamide] |
| 163 to 165 °C | Cc1cc(-c2ccc(Cl)cc2)ccc1C(=O)Nc1ccc2c(c1)CCC(CN(C)C)C2 (stereo not drawn) [Example 27, 4′-Chloro-N-[6-[(N,N-dimethylamino)methyl]-5,6,7,8-tetrahydro-2-naphthalenyl]-3-methyl[1,1′-biphenyl]-4-carboxamide] |
| 193 to 195 °C | Cc1cc(C(=O)Nc2ccc3c(c2)CCC(CN(C)C)C3)ccc1-c1ccc(Cl)cc1 (stereo not drawn) [Example 28, 4′-Chloro-N-[6-[(N,N-dimethylamino)methyl]-5,6,7,8-tetrahydro-2-naphthalenyl]-2-methyl[1,1′-biphenyl]-4-carboxamide] |
| 205 to 206 °C | CN(C)CC1CCc2cc(NC(=O)c3ccc(-c4ccc(C(F)(F)F)cc4)cc3)ccc2C1 (stereo not drawn) [Example 29, N-[6-[(N,N-Dimethylamino)methyl]-5,6,7,8-tetrahydro-2-naphthalenyl]-4′-(trifluoromethyl)[1,1-biphenyl]-4-carboxamide] |
| 177 to 178 °C | CN(C)CC1CCc2cc(NC(=O)c3ccc(-c4cccnc4)cc3)ccc2C1 (stereo not drawn) [Example 30, N-[6-[(N,N-Dimethylamino)methyl]-5,6,7,8-tetrahydro-2-naphthalenyl]-4-(3-pyridinyl)benzamide] |
| 235 to 237 °C | CN(C)CC1CCc2cc(NC(=O)c3ccc(-c4ccc(NC(=O)C(F)(F)F)cc4)cc3)ccc2C1 (stereo not drawn) [Example 31, N-[6-[(N,N-Dimethylamino)methyl]-5,6,7,8-tetrahydro-2-naphthalenyl]-4′-[(trifluoroacetyl)amino][1,1′-biphenyl]-4-carboxamide] |
| 185 to 187 °C | CN(C)CC1CCc2cc(NC(=O)c3ccc(-c4ccc(C5=NC(C)(C)CO5)cc4)cc3)ccc2C1 (stereo not drawn) [Example 32, N-[6-[(N,N-Dimethylamino)methyl]-5,6,7,8-tetrahydro-2-naphthalenyl]-4′-(4,4-dimethyl-4,5-dihydro-1,3-oxazole 2-yl)[1,1′-biphenyl]-4-carboxamide] |
| 148 to 150 °C | CN(C)CC1CCc2cc(NC(=O)c3ccc(-c4ccc(N)cc4)cc3)ccc2C1 (stereo not drawn) [Example 33, 4′-Amino-N-[6-[(N,N-dimethylamino)methyl]-5,6,7,8-tetrahydro-2-naphthalenyl][1,1′-biphenyl]-4-carboxamide] |
| 165 to 166 °C | CN(C)CC1CCc2cc(NC(=O)c3ccc(-c4cccs4)cc3)ccc2C1 (stereo not drawn) [Example 34, N-[6-[(N,N-Dimethylamino)methyl]-5,6,7,8-tetrahydro-2-naphthalenyl]-4-(2-thienyl) benzamide] |
| 156 to 158 °C | CCOC(=O)c1ccc(-c2ccc(C(=O)Nc3ccc4c(c3)CCC(CN(C)C)C4)cc2)cc1 (stereo not drawn) [Example 35, Ethyl 4′-[[[6-[(N,N-dimethylamino)methyl]-5,6,7,8-tetrahydro-2-naphthalenyl]amino]carbonyl][1,1′-biphenyl]-4-carboxylate] |
| 178 to 180 °C | CSc1ccc(-c2ccc(C(=O)Nc3ccc4c(c3)CCC(CN(C)C)C4)cc2)cc1 (stereo not drawn) [Example 36, N-[6-[(N,N-Dimethylamino)methyl]-5,6,7,8-tetrahydro-2-naphthalenyl]-4′-(methylsulfanyl)[1,1′-biphenyl]-4-carboxamide] |
| 212 to 213 °C | CN(C)CC1CCc2cc(NC(=O)c3ccc(-c4ccc(N(C)C)cc4)cc3)ccc2C1 (stereo not drawn) [Example 37, 4′-(N,N-Dimethylamino)-N-[6-[(N,N-dimethylamino)methyl]-5,6,7,8-tetrahydro-2-naphthalenyl][1,1′-biphenyl)-4-carboxamide] |
